Measurements reported in US12441763B2, “Hangtaimycin derivatives and their preparation methods and application” (WUHAN UNIVERSITY, priority 2022, dated 2025).

Assays:
bladder cancer = experiment: Antitumor activity, MTT cell viability, bladder cancer; type: cell-based; details: 50 μg/mL, 24 hours, P<0.01
Description: (§1) In a 96-well microplate, 100 μL of culture medium was put in each well and inoculate four cell strains with a fusion degree of 80% at a density of 8×10^3 cells. Cells were grown at 37° C., CO2 (5%) and air (95%). Each 96-well plate was placed with a concentration gradient of 0˜100 μg/mL of test compounds HTM, HTMA, HTMB, and HTMP. After 24 hours of incubation, the medium was removed, and 0.5 mg/mL MTT solution was added to each medium with cells and continue to incubate the cells for 4 hours at 37° C. Then 100 μL of DMSO was added to dissolve formazan crystals. Finally, absorbance was measured at 570 nm using a microplate reader (Bioteck EON, USA). The viability of the cells was calculated as the percentage of cell viability compared to vehicle control-treated cells, which were arbitrarily assigned as 100% viability. Each independent experiment was repeated five times. (*P<0.05, **P<0.01, ***P<0.001)

renal cancer = experiment: Antitumor activity, MTT cell viability, renal cancer; type: cell-based; details: 50 μg/mL, 24 hours, P<0.01
Description: as §1

HepG2 cells = experiment: Cellular assay for hepatoprotective activity, CCl4-induced liver injury cell model; type: cell-based; details: compared with the CCl4 group; HepG2 cell homogenates
Description: HepG2 cells were seeded into 24-well plates and kept at 37° C. in 5% CO2 in order to achieve 80% fusion. To evaluate the effects of HTMA, HTMB, and HTMP on aspartate aminotransferase (AST) and alanine aminotransferase (ALT) activity, and compare the results with those of Silymarin (positive control) (FIG. 26), a cellular assay for hepatoprotective activity was carried out using a CCl4-induced liver injury cell model. The cells were treated with the compounds followed by ultrasound disruption and cell homogenization to prepare the cell homogenates for analysis.

breast cancer = experiment: Antitumor activity, MTT cell viability, breast cancer; type: cell-based; details: 50 μg/mL, 24 hours, P<0.01
Description: as §1

[1] = test system: carrageenan-induced paw inflammation; experiment: Anti-inflammatory effect in inflammatory model induced by carrageenan (paw); type: in vivo, Kunming mice; details: 10 mg/mL, 10 μL subcutaneous into right hind paw; 4 hours after carrageenan injection; vs carrageenan+solvent group; P<0.05
Description: Male Kunming mice weighing 18˜22 g were adaptively reared for 1 day, and then randomly divided into […] (5˜6 mice per group): the saline+solvent group, the saline+HTM group, the saline+HTMP group, the saline+HTMA group, the saline+HTMB group, the saline+rapamycin (250 nM) group, the carrageenan+solvent group, the carrageenan+HTM group, the carrageenan+HTMP group, the carrageenan+HTMA group, the carrageenan+HTMB group, and the carrageenan+rapamycin (250 nM) group. Where doses used for HTM, HTMP, HTMA, and HTMB were set at 1, 3, and 10 mg/mL, and their solutions all contained 5% DMSO. Experiments were designed based on previous studies (Zhang et al., 2018). Carrageenan was used to induce paw inflammation, and the experimental procedure was as follows:
(1) The thickness of the right hind foot of mice was measured with a vernier caliper before the experiment, and the measurement site was marked.
(2) The experimental group was then subcutaneously injected into the right hind paw with 10 μL of different concentrations of compound solutions. The control group was injected with 10 μL saline into the right hind paw.
(3) After administration, the carrageenan group was injected subcutaneously with 30 μL of 1% carrageenan solution into the right hind paw, and the other groups were injected with an equal volume of saline. The thickness of the right hind foot of each mouse was measured at the same site every 1 hour for the following 4 hours to observe the effect of the compounds on the change in foot thickness.

liver cancer = experiment: Antitumor activity, MTT cell viability, liver cancer; type: cell-based; details: 50 μg/mL, 24 hours, P<0.01
Description: as §1

[2] = Antioxidant activity, DPPH free radical scavenging; type: biochemical; details: 1~50 μg/mL, 0.1 mM DPPH, absorbance at 517 nm
Description: In this experiment, a 0.1 mM DPPH solution was prepared with ethanol, and each sample solution/dispersion was separately mixed with the DPPH solution in order to dilute it into a reaction product with a concentration gradient of 1˜50 μg/mL to evaluate the concentration-dependent antioxidant potential. The reaction product was measured for its absorbance (AS) at 517 nm using an ultraviolet-visible spectrophotometer, and its antioxidant activity was measured using DPPH removal as an indicator. The percentage of DPPH free radical scavenging is calculated by the following formula: […]
AS is the absorbance of the sample and A0 is the absorbance of the control (only DPPH solution).

Substance: Deoxyhangtaimycin [HTMP]
- survival rate of bladder cancer (bladder cancer): significantly inhibited
- survival rate of renal cancer (renal cancer): significantly inhibited
- ALT levels (HepG2 cells): significantly reduced
- AST levels (HepG2 cells): significantly reduced
- survival rate of breast cancer (breast cancer): significantly inhibited
- right hind foot thickness [1]: reduced
- survival rate of liver cancer (liver cancer): significantly inhibited
- antioxidant capacity (DPPH free radical scavenging) [2]: have antioxidant capacity
